According to ChEMBL document CHEMBL1131118, “Inhibition of monoamine oxidase-B by condensed pyridazines and pyrimidines: effects of lipophilicity and structure-activity relationships” (J Med Chem, 1998):

Legend:
[1] = Partition coefficient (logP) (cyclohexane); conditions: octanol/water
[2] = Partition coefficient (logP); conditions: octanol/water
[3] = biological target: T1, Amine oxidase [flavin-containing] A (Rattus norvegicus, UniProt P21396); assay: Inhibitory activity against Monoamine oxidase A from rat brain mitochondria
T1 sequence (P21396 whole entry): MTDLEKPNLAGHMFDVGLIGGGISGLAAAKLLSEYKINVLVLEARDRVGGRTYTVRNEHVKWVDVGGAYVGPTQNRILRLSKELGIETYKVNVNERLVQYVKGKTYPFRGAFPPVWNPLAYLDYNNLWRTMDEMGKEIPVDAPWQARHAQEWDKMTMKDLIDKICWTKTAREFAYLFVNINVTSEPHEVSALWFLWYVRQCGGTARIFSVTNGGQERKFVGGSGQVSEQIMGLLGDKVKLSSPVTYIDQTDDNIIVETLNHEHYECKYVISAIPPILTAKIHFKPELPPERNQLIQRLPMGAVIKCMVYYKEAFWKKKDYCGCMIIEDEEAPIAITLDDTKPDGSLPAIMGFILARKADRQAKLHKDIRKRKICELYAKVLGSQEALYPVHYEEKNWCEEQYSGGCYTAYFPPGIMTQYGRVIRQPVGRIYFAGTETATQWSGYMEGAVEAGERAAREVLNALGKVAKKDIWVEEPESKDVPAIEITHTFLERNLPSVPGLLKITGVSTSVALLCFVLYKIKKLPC

[4] = biological target: T2, Amine oxidase [flavin-containing] B (Rattus norvegicus, UniProt P19643)
T2 sequence (P19643 whole entry): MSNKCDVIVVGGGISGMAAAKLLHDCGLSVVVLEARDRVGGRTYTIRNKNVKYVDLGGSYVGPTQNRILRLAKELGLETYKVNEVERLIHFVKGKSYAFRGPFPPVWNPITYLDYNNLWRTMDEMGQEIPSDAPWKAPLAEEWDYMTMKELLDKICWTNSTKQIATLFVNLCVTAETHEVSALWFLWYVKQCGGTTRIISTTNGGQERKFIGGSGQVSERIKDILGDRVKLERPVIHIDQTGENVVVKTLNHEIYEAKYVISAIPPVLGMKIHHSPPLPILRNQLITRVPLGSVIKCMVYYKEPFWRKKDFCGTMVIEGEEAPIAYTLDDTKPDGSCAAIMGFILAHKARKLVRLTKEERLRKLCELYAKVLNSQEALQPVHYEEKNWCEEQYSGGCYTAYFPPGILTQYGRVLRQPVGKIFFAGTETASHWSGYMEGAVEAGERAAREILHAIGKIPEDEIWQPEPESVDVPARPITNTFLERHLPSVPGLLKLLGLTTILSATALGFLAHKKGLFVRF
Description: Inhibitory activity against Monoamine oxidase B from rat brain mitochondria at 125 uM

[5] = biological target: T2, Amine oxidase [flavin-containing] B; assay: Inhibitory activity against Monoamine oxidase B from rat brain mitochondria
[6] = biological target: T1, Amine oxidase [flavin-containing] A; assay: Inhibitory activity against Monoamine oxidase A from rat brain mitochondria at 5 uM
[7] = biological target: T2, Amine oxidase [flavin-containing] B; assay: Inhibitory activity against Monoamine oxidase B from rat brain mitochondria at 5 uM
[8] = biological target: T2, Amine oxidase [flavin-containing] B; assay: Inhibitory activity against Monoamine oxidase B
[9] = biological target: T2, Amine oxidase [flavin-containing] B; assay: Inhibitory activity against Monoamine oxidase B from rat brain mitochondria at 10 uM
[10] = biological target: T1, Amine oxidase [flavin-containing] A; assay: Inhibitory activity against Monoamine oxidase A from rat brain mitochondria at 100 uM
[11] = biological target: T2, Amine oxidase [flavin-containing] B; assay: Inhibitory activity against Monoamine oxidase B from rat brain mitochondria at 100 uM
[12] = biological target: T1, Amine oxidase [flavin-containing] A
Description: Inhibitory activity against Monoamine oxidase A from rat brain mitochondria at 25 uM

[13] = biological target: T1, Amine oxidase [flavin-containing] A; assay: Inhibitory activity against Monoamine oxidase A from rat brain mitochondria at 50 uM
[14] = biological target: T2, Amine oxidase [flavin-containing] B; assay: Inhibitory activity against Monoamine oxidase B from rat brain mitochondria at 50 uM

Compound	logP [1]	logP [2]	other results
O=C1c2ccccc2-c2nnc(-c3ccccc3[N+](=O)[O-])cc21	1.05	2.64	
O=C1c2ccccc2-c2nnc(-c3ccccc3F)cc21	2.07	> 3	
COc1ccc(-c2cc3c(nn2)-c2ccccc2C3=O)cc1	2.51	> 3	
O=c1[nH]c(=O)c2cc(-c3ccccc3)nnc2[nH]1	-2.22	1.56	IC50 [3]: 16.4 µM; inhibition at 125 µM [4]: 32%
O=C1c2ccccc2-c2nnc(-c3ccccc3O)cc21	2.55	3.15	
O=C1c2ccccc2-c2nnc(-c3cccc([N+](=O)[O-])c3)cc21	1.66	> 3	IC50 [5]: 0.631 µM
Cc1cc2c(nn1)-c1ccccc1C2=O	-0.04	1.58	
O=C1c2ccccc2-c2nncc(-c3ccccc3)c21	1.4	2.8	
Cc1c(-c2ccccc2)nnc2c1C(=O)c1ccccc1-2	2.16	> 3	
c1ccc(-c2cc3[nH]c4ccccc4c3nn2)cc1			inhibition at 5 µM [6]: 0%; inhibition at 5 µM [7]: 0%
O=C1c2ccccc2-c2nnc(C(F)(F)F)cc21	0.7	2.21	
O=C1CCCc2nnc(-c3ccccc3)cc21	0.6	2.05	IC50 [3]: 59.1 µM; IC50 [8]: 74.1 µM; IC50 [5]: 74.8 µM
O=C1c2ccccc2-c2nc(-c3ccccc3)ncc21	3.15	> 3	IC50 [3]: 8.39 µM; inhibition at 10 µM [9]: 28%; IC50 [5]: 11.5 µM
O=C(c1ccccc1)c1ccnnc1	-0.45	1.09	inhibition at 100 µM [10]: 18%; inhibition at 100 µM [11]: 29%
COc1cccc(-c2cc3c(nn2)-c2ccccc2C3=O)c1	2.83	> 3	
O=C1c2ccccc2-c2nnc(-c3ccc(F)cc3)cc21	2.56	> 3	
O=C1c2ccccc2-c2nnccc21	-0.29	1.22	
O=C1c2ccccc2-c2cnc(-c3ccccc3)nc21			IC50 [3]: 2.37 µM; IC50 [5]: 11.6 µM
COc1ccccc1-c1cc2c(nn1)-c1ccccc1C2=O	2.26	> 3	
O=C1c2ccccc2-c2nnc(-c3ccccc3)cc21	2.34	> 3	inhibition at 25 µM [12]: 0%
O=C1c2ccccc2-c2nnc(-c3ccc([N+](=O)[O-])cc3)cc21	2.34	> 3	
c1ccc(-c2cc3c(nn2)CCC3)cc1			inhibition at 50 µM [13]: 44%; inhibition at 50 µM [14]: 12%
O=C1c2ccccc2-c2nnc(-c3ccc(O)cc3)cc21	0.13	2.88	
O=c1[nH]c(=O)c2cc(-c3ccc(C(F)(F)F)cc3)nnc2[nH]1			inhibition at 5 µM [6]: 15%; inhibition at 5 µM [7]: 12.5%
